In ChEMBL document CHEMBL3885881, “DrugMatrix”:

Species on record: Rattus norvegicus
Experiment: DrugMatrix - Regimen: Daily Repeat
Assay type: toxicity, organism-based, Sprague-Dawley
Design: regimen Daily Repeat, gender Male, age 6-8 weeks
Details: in vivo, iv, 31 mg/kg, dose level Low, vehicle 100 % SALINE; for ABSOLUTE BASOPHIL / ABSOLUTE EOSINOPHIL / ABSOLUTE LYMPHOCYTE / ABSOLUTE MONOCYTE / ABSOLUTE SEGMENTED NEUTROPHIL / BASOPHIL / EOSINOPHIL / ERYTHROCYTE COUNT / HEMATOCRIT / HEMOGLOBIN / LEUKOCYTE COUNT / LYMPHOCYTE / MEAN CORPUSCULAR HEMOGLOBIN / MEAN CORPUSCULAR HEMOGLOBIN CONCENTRATION / MEAN CORPUSCULAR VOLUME / MONOCYTE / NEUTROPHIL / NUCLEATED RED BLOOD CELLS / PLATELET COUNT: tissue Blood; for ALANINE AMINOTRANSFERASE / ALBUMIN / ALKALINE PHOSPHATASE / ASPARTATE AMINOTRANSFERASE / BLOOD UREA NITROGEN / CARBON DIOXIDE / CHLORIDE / CHOLESTEROL / CREATINE PHOSPHOKINASE / CREATININE / GLUCOSE / LACTATE DEHYDROGENASE / LIPASE / PHOSPHORUS / POTASSIUM / SODIUM / TOTAL BILIRUBIN / TOTAL PROTEIN / URIC ACID: tissue Plasma

`Cc1cn[nH]c1` [FOMEPIZOLE] was tested, and the “ABSOLUTE BASOPHIL” value (72 h, time 3 day) was 0 CELLS/uL, the “ABSOLUTE EOSINOPHIL” value (72 h, time 3 day) was 41 CELLS/uL and the “ABSOLUTE LYMPHOCYTE” value (72 h, time 3 day) was 12783.33 CELLS/uL. The “ABSOLUTE MONOCYTE” value (72 h, time 3 day) was 137 CELLS/uL, the “ABSOLUTE SEGMENTED NEUTROPHIL” value (72 h, time 3 day) was 738.67 CELLS/uL and the BASOPHIL (72 h, time 3 day) was 0%. The EOSINOPHIL (72 h, time 3 day) was 0.33%, the “ERYTHROCYTE COUNT” value (72 h, time 3 day) was 5.82 x10E6/uL and the HEMATOCRIT (72 h, time 3 day) was 35.33%. The HEMOGLOBIN (72 h, time 3 day) was 13.87 G/DL, the “LEUKOCYTE COUNT” value (72 h, time 3 day) was 13.7 x10E3/uL and the LYMPHOCYTE (72 h, time 3 day) was 93.33%. The “MEAN CORPUSCULAR HEMOGLOBIN” value (72 h, time 3 day) was 23.83 pg, the “MEAN CORPUSCULAR HEMOGLOBIN CONCENTRATION” value (72 h, time 3 day) was 39.27 G/DL and the “MEAN CORPUSCULAR VOLUME” value (72 h, time 3 day) was 60.67 fL. For the same molecule, the MONOCYTE (72 h, time 3 day) was 1%, the NEUTROPHIL (72 h, time 3 day) was 5.33% and the “NUCLEATED RED BLOOD CELLS” value (72 h, time 3 day) was 0 /100WBC. For the same molecule, the “PLATELET COUNT” value (72 h, time 3 day) was 1326.67 x10E3/uL, the “ALANINE AMINOTRANSFERASE” value (72 h, time 3 day) was 46.33 u/L and the ALBUMIN (72 h, time 3 day) was 4.27 G/DL. For the same molecule, the “ALKALINE PHOSPHATASE” value (72 h, time 3 day) was 429.67 u/L, the “ASPARTATE AMINOTRANSFERASE” value (72 h, time 3 day) was 79 u/L and the “BLOOD UREA NITROGEN” value (72 h, time 3 day) was 14.67 mg/dL. The “CARBON DIOXIDE” value (72 h, time 3 day) was 23.67 mmol/L, the CHLORIDE (72 h, time 3 day) was 103.67 MEQ/L and the CHOLESTEROL (72 h, time 3 day) was 67.67 mg/dL. For the same molecule, the “CREATINE PHOSPHOKINASE” value (72 h, time 3 day) was 240.33 u/L, the CREATININE (72 h, time 3 day) was 0.15 mg/dL and the GLUCOSE (72 h, time 3 day) was 166.33 mg/dL. The “LACTATE DEHYDROGENASE” value (72 h, time 3 day) was 139.67 u/L, the LIPASE (72 h, time 3 day) was 9.33 u/L and the PHOSPHORUS (72 h, time 3 day) was 13.53 mg/dL. For the same molecule, the POTASSIUM (72 h, time 3 day) was 6.4 MEQ/L, the SODIUM (72 h, time 3 day) was 147.03 MEQ/L and the “TOTAL BILIRUBIN” value (72 h, time 3 day) was 0.2 mg/dL. For the same molecule, the “TOTAL PROTEIN” value (72 h, time 3 day) was 5.77 G/DL, the “URIC ACID” value (72 h, time 3 day) was 1.67 mg/dL and the “ABSOLUTE BASOPHIL” value (120 h, time 5 day) was 0 CELLS/uL. For the same molecule, the “ABSOLUTE EOSINOPHIL” value (120 h, time 5 day) was 0 CELLS/uL, the “ABSOLUTE LYMPHOCYTE” value (120 h, time 5 day) was 17243.67 CELLS/uL and the “ABSOLUTE MONOCYTE” value (120 h, time 5 day) was 226 CELLS/uL. The “ABSOLUTE SEGMENTED NEUTROPHIL” value (120 h, time 5 day) was 1697 CELLS/uL, the BASOPHIL (120 h, time 5 day) was 0% and the EOSINOPHIL (120 h, time 5 day) was 0%. The “ERYTHROCYTE COUNT” value (120 h, time 5 day) was 5.34 x10E6/uL, the HEMATOCRIT (120 h, time 5 day) was 34.37% and the HEMOGLOBIN (120 h, time 5 day) was 13.8 G/DL. The “LEUKOCYTE COUNT” value (120 h, time 5 day) was 19.17 x10E3/uL, the LYMPHOCYTE (120 h, time 5 day) was 89.67% and the “MEAN CORPUSCULAR HEMOGLOBIN” value (120 h, time 5 day) was 25.9 pg. The “MEAN CORPUSCULAR HEMOGLOBIN CONCENTRATION” value (120 h, time 5 day) was 40.17 G/DL, the “MEAN CORPUSCULAR VOLUME” value (120 h, time 5 day) was 64.4 fL and the MONOCYTE (120 h, time 5 day) was 1.33%. The NEUTROPHIL (120 h, time 5 day) was 9%, the “NUCLEATED RED BLOOD CELLS” value (120 h, time 5 day) was 0 /100WBC and the “PLATELET COUNT” value (120 h, time 5 day) was 1415 x10E3/uL. The “ALANINE AMINOTRANSFERASE” value (120 h, time 5 day) was 63.33 u/L, the ALBUMIN (120 h, time 5 day) was 4.27 G/DL and the “ALKALINE PHOSPHATASE” value (120 h, time 5 day) was 350 u/L. The “ASPARTATE AMINOTRANSFERASE” value (120 h, time 5 day) was 91 u/L, the “BLOOD UREA NITROGEN” value (120 h, time 5 day) was 15.33 mg/dL and the “CARBON DIOXIDE” value (120 h, time 5 day) was 21.67 mmol/L. For the same molecule, the CHLORIDE (120 h, time 5 day) was 103.33 MEQ/L, the CHOLESTEROL (120 h, time 5 day) was 77 mg/dL and the “CREATINE PHOSPHOKINASE” value (120 h, time 5 day) was 195 u/L. The CREATININE (120 h, time 5 day) was 0.2 mg/dL, the GLUCOSE (120 h, time 5 day) was 155.67 mg/dL and the “LACTATE DEHYDROGENASE” value (120 h, time 5 day) was 131 u/L. For the same molecule, the LIPASE (120 h, time 5 day) was 10.67 u/L, the PHOSPHORUS (120 h, time 5 day) was 13.77 mg/dL and the POTASSIUM (120 h, time 5 day) was 6.85 MEQ/L. For the same molecule, the SODIUM (120 h, time 5 day) was 145.9 MEQ/L, the “TOTAL BILIRUBIN” value (120 h, time 5 day) was 0.17 mg/dL and the “TOTAL PROTEIN” value (120 h, time 5 day) was 5.93 G/DL. The “URIC ACID” value (120 h, time 5 day) was 1.7 mg/dL.
